This note sets out measurements from patent publication US9988375B2, “Inhibitors of lysine gingipain” (priority 2014, dated 2018).

One may read the IC50 as the concentration that inhibits the measured activity by half.

Entries after “also recorded” stand apart in the source; their conditions may differ. Bounds are passed on as bounds.

The first assay has as its target lysine gingipain (Kgp) (Porphyromonas gingivalis (strain ATCC 33277 / DSM 20709 / CIP 103683 / JCM 12257 / NCTC 11834 / 2561), UniProt B2RLK2). Description: Lysine gingipain (Kgp) fluorogenic inhibition assay. It is filed as biochemical. Particulars: 0.1 nM Kgp, 10 uM Z-His-Glu-Lys-MCA, 90 minutes, 37° C., pH 7.5; read-out: Kgp IC50 average. How it is done:
The capacities of compounds of the present invention to inhibit the activity of lysine gingipain were measured in a fluorogenic assay similar to those described in Barret Biochemical Journal. 1980, 187(3), 909. The specific assay conditions were as follows. Buffer: pH=7.5, 100 mM Tris-HCl, 75 mM NaCl, 2.5 mM CaCl2, 10 mM cysteine, 1% DMSO after all additions. Protein: 0.1 nM Kgp, isolated from culture of Porphyromonas gingivalis, as described in Pike et al. J. Biol. Chem. 1994, 269(1), 406, and Potempa and Nguyen. Current Protocols in Protein Scienc. 2007, 21.20.1-21.20.27. Fluorogenic substrate: 10 uM Z-His-Glu-Lys-MCA. Time=90 minutes. Temperature=37° C. Each compound: 10 concentrations, starting at either 100 uM or 100 nM, with lower concentrations generated by serial 3-fold dilutions. By testing a range of concentrations for each compound, the concentration required to inhibit the activity of lysine gingipain by 50% (the “IC50”) was determined. Under the described assay conditions, signal-to-noise was excellent, and Z factor was greater than 0.6.
The inhibitory of activity of compounds described herein was tested against Kgp, RgpB, and trypsin.
Turning to `NCCCC[C@H](NC(=O)C1CCCC1)C(=O)c1nc2ccccc2s1` [Compound 24, N-[(1S)-5-amino-1-(1,3-benzothiazole-2-carbonyl)pentyl]cyclo-pentanecarboxamide], the IC50 lay in the range of 0.001 to 0.01 µM.

With `NCCCC[C@H](NC(=O)C1CCCO1)C(=O)c1nc2ccccc2s1` (single isomer, unassigned) [Compound 34], the IC50 lay within 0.001 to 0.01 µM.

For `NCCCC[C@H](NC(=O)C1CCCc2ccccc21)C(=O)c1nc2ccccc2s1` (stereo partly drawn) [Compound 31, N-[(1S)-5-amino-1-(1,3-benzothiazole-2-carbonyl)pentyl]tetralin-1-carboxamide], the half-maximal inhibitory concentration (IC50) was in the range of 0.01 to 0.025 µM.

With `NCCCC[C@H](NC(=O)C1CCCCO1)C(=O)c1nc2ccccc2s1` (single isomer, unassigned) [Compound 26], the IC50 fell in the range of 0.025 to 0.05 µM.

On to `CC(=O)N1CCC[C@@H](C(=O)N[C@H](CCCCN)C(=O)c2nc3ccccc3s2)C1` [Compound 11, (3R)-1-acetyl-N-[(1R)-5-amino-1-(1,3-benzothiazole-2-carbonyl)pentyl]piperidine-3-carboxamide], for which the 50% inhibitory concentration (IC50) was in the range of 0.001 to 0.01 µM.

Regarding `NCCCC[C@H](NC(=O)[C@H]1CCCN(C(=O)CCc2ccccc2)C1)C(=O)c1nc2ccccc2s1` [Compound 3, (3S)—N-[(1S)-5-amino-1-(1,3-benzothiazole-2-carbonyl)pentyl]-1-(3-phenylpropanoyl)piperidine-3-carboxamide], the concentration for half-maximal inhibition (IC50) lay in the range of 0.01 to 0.025 µM.

As to `NCCCC[C@H](NC(=O)C1CCCCO1)C(=O)c1nc2ccccc2s1` (single isomer, unassigned) [Compound 25], the IC50 was in the range of 0.025 to 0.05 µM.

For `CC(=O)N1CCOC(C(=O)N[C@@H](CCCCN)C(=O)c2nc3ccccc3s2)C1` (stereo partly drawn) [Compound 29, 4-acetyl-N-[(1S)-5-amino-1-(1,3-benzothiazole-2-carbonyl)pentyl]morpholine-2-carboxamide], the IC50 lay in the range of 0.01 to 0.025 µM.

Consider `NCCCC[C@H](NC(=O)c1cccnc1)C(=O)c1nc2ccccc2s1` [Compound 30, N-[(1S)-5-amino-1-(1,3-benzothiazole-2-carbonyl)pentyl]pyridine-3-carboxamide], for which the IC50 is 0.025 to 0.05 µM.

In the case of `CC1(C(=O)N[C@@H](CCCCN)C(=O)c2nc3ccccc3s2)CCCCC1` [Compound 33, N-[(1S)-5-amino-1-(1,3-benzothiazole-2-carbonyl)pentyl]-1-methyl-cyclohexanecarboxamide], the IC50 is 0.001 to 0.01 µM.

For the compound `NCCCC[C@H](NC(=O)C1CCCOC1)C(=O)c1nc2ccccc2s1` (single isomer, unassigned) [Compound 19], the IC50 lay within 0.01 to 0.025 µM.

Turning to `CC(=O)N1CCC[C@H](C(=O)N[C@@H](CCCCN)C(=O)c2nc3ccccc3s2)C1` [Compound 8, (3S)-1-acetyl-N-[(1S)-5-amino-1-(1,3-benzothiazole-2-carbonyl)pentyl] piperidine-3-carboxamide], the IC50 lay within 0.01 to 0.025 µM.

Consider `NCCCC[C@H](NC(=O)C1CCCC1)C(=O)c1ccccn1` [Compound 44, N-[(1S)-5-amino-1-(pyridine-2-carbonyl)pentyl]cyclopentanecarboxamide], for which the IC50 is greater than 0.25 µM.

Consider `CC(=O)N1CCC[C@@H](C(=O)N[C@@H](CCCCN)C(=O)c2nc3ccccc3s2)C1` [Compound 9, (3R)-1-acetyl-N-[(1S)-5-amino-1-(1,3-benzothiazole-2-carbonyl)pentyl]piperidine-3-carboxamide], for which the IC50 lay within 0.001 to 0.01 µM.

In the case of `NCCCCC(NC(=O)[C@@H]1CCCN(C(=O)CCc2ccccc2)C1)C(=O)c1nc2ccccc2s1` (single isomer, unassigned) [Compound 15], the half-maximal inhibitory concentration (IC50) fell in the range of 0.001 to 0.01 µM.

On to `NCCCC[C@H](NC(=O)C1CCOCC1)C(=O)c1nc2ccccc2s1` [Compound 22, N-[(1S)-5-amino-1-(1,3-benzothiazole-2-carbonyl)pentyl]tetrahydropyran-4-carboxamide], for which the IC50 fell in the range of 0.01 to 0.025 µM.

On to `NCCCC[C@H](NC(=O)c1cccc(=O)[nH]1)C(=O)c1nc2ccccc2s1` [Compound 40, N-[(1S)-5-amino-1-(1,3-benzothiazole-2-carbonyl)pentyl]-6-oxo-1H-pyridine-2-carboxamide], for which the half-maximal inhibitory concentration (IC50) lay within 0.025 to 0.05 µM.

Consider `NCCCC[C@H](NC(=O)[C@@H]1CCCN(C(=O)CCc2ccccc2)C1)C(=O)c1nc2ccccc2s1` [Compound 4, (3R)—N-[(1S)-5-amino-1-(1,3-benzothiazole-2-carbonyl)pentyl]-1-(3-phenylpropanoyl)piperidine-3-carboxamide], for which the half-inhibitory concentration (IC50) lay within 0.001 to 0.01 µM.

With `NCCCC[C@H](NC(=O)C1CCCC1)C(=O)c1nccs1` [Compound 42, N-[(1S)-5-amino-1-(thiazole-2-carbonyl)pentyl]cyclopentanecarboxamide], the IC50 fell in the range of 0.05 to 0.1 µM.

As for `NCCCC[C@H](NC(=O)C1CCCOC1)C(=O)c1nc2ccccc2s1` (single isomer, unassigned) [Compound 18], the IC50 is 0.01 to 0.025 µM.

As for `NCCCC[C@H](NC(=O)c1ccccn1)C(=O)c1nc2ccccc2s1` [Compound 12, N-[(1S)-5-amino-1-(1,3-benzothiazole-2-carbonyl)pentyl]pyridine-2-carboxamide], the concentration for half-maximal inhibition (IC50) lay within 0.05 to 0.1 µM.

Consider `COC1(C(=O)N[C@@H](CCCCN)C(=O)c2nc3ccccc3s2)CCCCC1` [Compound 41, (S)—N-(6-amino-1-(benzo[d]thiazol-2-yl)-1-oxohexan-2-yl)-1-methoxycyclohexanecarboxamide], for which the IC50 lay in the range of 0.01 to 0.025 µM.

For `NCCCC[C@H](NC(=O)c1cncs1)C(=O)c1nc2ccccc2s1` [Compound 38, N-[(1S)-5-amino-1-(1,3-benzothiazole-2-carbonyl)pentyl]thiazole-5-carboxamide], the IC50 is 0.01 to 0.025 µM.

For `NCCCC[C@H](NC(=O)c1ccccc1C(F)(F)F)C(=O)c1nc2ccccc2s1` [Compound 7, N-[(1S)-5-amino-1-(1,3-benzothiazole-2-carbonyl)pentyl]-2-(trifluoromethyl)benzamide], the half-maximal inhibitory concentration (IC50) lay in the range of 0.025 to 0.05 µM.

As for `CC(=O)N1CCC[C@H](C(=O)N[C@H](CCCCN)C(=O)c2nc3ccccc3s2)C1` [Compound 10, (3S)-1-acetyl-N-[(1R)-5-amino-1-(1,3-benzothiazole-2-carbonyl)pentyl] piperidine-3-carboxamide], the half-inhibitory concentration (IC50) lay within 0.01 to 0.025 µM.

Turning to `NCCCC[C@H](NC(=O)C1CCCO1)C(=O)c1nc2ccccc2s1` (single isomer, unassigned) [Compound 35], the IC50 lay in the range of 0.001 to 0.01 µM.

With `NCCCC[C@H](NC(=O)c1ccncc1)C(=O)c1nc2ccccc2s1` [Compound 13, N-[(1S)-5-amino-1-(1,3-benzothiazole-2-carbonyl)pentyl]pyridine-4-carboxamide], the half-maximal inhibitory concentration (IC50) lay in the range of 0.025 to 0.05 µM.

For `NCCCC[C@H](NC(=O)OCc1ccccc1)C(=O)c1nc2ccccc2s1` [Compound 23, Benzyl-N-[(1S)-5-amino-1-(1,3-benzothiazole-2-carbonyl)pentyl]carbamate], the half-maximal inhibitory concentration (IC50) lay within 0.1 to 0.25 µM.

On to `NCCCC[C@H](NC(=O)C1CCc2ccccc2C1)C(=O)c1nc2ccccc2s1` (stereo partly drawn) [Compound 32, N-[(1S)-5-amino-1-(1,3-benzothiazole-2-carbonyl)pentyl]tetralin-2-carboxamide], for which the concentration for half-maximal inhibition (IC50) fell in the range of 0.001 to 0.01 µM.

With `NCCCCC(NC(=O)[C@@H]1CCCN(C(=O)CCc2ccccc2)C1)C(=O)c1nc2ccccc2s1` (single isomer, unassigned) [Compound 14], the 50% inhibitory concentration (IC50) lay within 0.001 to 0.01 µM.

In the case of `NCCCC[C@H](NC(=O)c1nccs1)C(=O)c1nc2ccccc2s1` [Compound 39, N-[(1S)-5-amino-1-(1,3-benzothiazole-2-carbonyl)pentyl]thiazole-2-carboxamide], the concentration for half-maximal inhibition (IC50) was 0.05 to 0.1 µM.

Staying with this assay, now noted: read-out: Kgp IC50.
As for `NCCCC[C@H](NC(=O)[C@H]1CCCN(C(=O)CCc2ccccc2)C1)C(=O)c1nc2ccccc2s1` [Compound 3, (3S)—N-[(1S)-5-amino-1-(1,3-benzothiazole-2-carbonyl)pentyl]-1-(3-phenylpropanoyl)piperidine-3-carboxamide], the IC50 is 0.01 to 0.025 µM.

In the case of `NCCCC[C@H](NC(=O)[C@@H]1CCCN(C(=O)CCc2ccccc2)C1)C(=O)c1nc2ccccc2s1` [Compound 4, (3R)—N-[(1S)-5-amino-1-(1,3-benzothiazole-2-carbonyl)pentyl]-1-(3-phenylpropanoyl)piperidine-3-carboxamide], the half-maximal inhibitory concentration (IC50) fell in the range of 0.001 to 0.01 µM.

Another assay concerns differentiated SHSY-5Y cells. Description: Gingipain-induced death of differentiated SH-SY5Y cells. It is filed as cell-based. The note with it: 100 nM Kgp and/or RgpB for 24 hours. How it is done:
SH-SY5Y neuroblastoma cells were cultured and differentiated in the presence of 5 uM retinoic acid based on established methods [Saberi S., et al. Cell Mol Neurobiol 2013. 33: 747-751]. Differentiation into neuronal cells was verified by observation of neurite outgrowth. The differentiated cells were exposed to 100 nM Kgp and/or RgpB for 24 hours, in the presence or absence of Kgp inhibitors. Results were recorded using a digital microscope camera (FIG. 1C, FIG. 2C). Gingipains are toxic to cells while COR compounds prevent the cytotoxicity.
As for `NCCCC[C@H](NC(=O)[C@H]1CCCN(C(=O)CCc2ccccc2)C1)C(=O)c1nc2ccccc2s1` [Compound 3, (3S)—N-[(1S)-5-amino-1-(1,3-benzothiazole-2-carbonyl)pentyl]-1-(3-phenylpropanoyl)piperidine-3-carboxamide], the “prevention of gingipain-induced death of differentiated SHSY-5Y cells” value (“prevention … of differentiated SHSY-5Y cells” for short) was “does not”.

For the compound `NCCCC[C@H](NC(=O)c1ccccc1)C(=O)c1nc2ccccc2s1` [Compound 1, N-[(1S)-5-amino-1-(1,3-benzothiazole-2-carbonyl)pentyl]benzamide], the “prevention … of differentiated SHSY-5Y cells” value is “prevents; also recorded: effective at preventing cell death”.

In the case of `NCCCC[C@H](NC(=O)[C@@H]1CCCN(C(=O)CCc2ccccc2)C1)C(=O)c1nc2ccccc2s1` [Compound 4, (3R)—N-[(1S)-5-amino-1-(1,3-benzothiazole-2-carbonyl)pentyl]-1-(3-phenylpropanoyl)piperidine-3-carboxamide], the “prevention … of differentiated SHSY-5Y cells” value is recorded as “prevents”.

Staying with this assay, now noted: 100 nM Kgp and/or RgpB for 24 hours; listed as 2-(N—[N-(3-phenylpropanoyl)-(R)-nipecotinyl]-(R)-lysinyl)-benzothiazole.
`NCCCC[C@H](NC(=O)[C@@H]1CCCN(C(=O)CCc2ccccc2)C1)C(=O)c1nc2ccccc2s1` [Compound 4, (3R)—N-[(1S)-5-amino-1-(1,3-benzothiazole-2-carbonyl)pentyl]-1-(3-phenylpropanoyl)piperidine-3-carboxamide]: the “prevention … of differentiated SHSY-5Y cells” value is “effective at preventing cell death”.
